Measurements published in PubChem BioAssay (NCI).
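Test compounds were applied to cells in 96-well plates for 48 hours at 5 doses. The concentration for 50% growth inhibition is given as GI50. Definition used: TGI = concentration required for complete inhibition of growth.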

What was measured:
Assay in all cases: DTP human tumour cell line panel, 48 h
[1] = tested on: 786-0 renal
[2] = tested on: A498 renal
[3] = tested on: A549 NSCLC
[4] = tested on: ACHN renal
[5] = tested on: BT-549 breast
[6] = tested on: CAKI-1 renal
[7] = tested on: CCRF-CEM leukemia
[8] = tested on: COLO 205 colon
[9] = tested on: DU-145 prostate
[10] = tested on: EKVX NSCLC
[11] = tested on: HCC-2998 colon
[12] = tested on: HCT-116 colon
[13] = tested on: HCT-15 colon
[14] = tested on: HL-60(TB) leukemia
[15] = tested on: HOP-62 NSCLC
[16] = tested on: HOP-92 NSCLC
[17] = tested on: HS 578T breast
[18] = tested on: HT29 colon
[19] = tested on: IGROV1 ovarian
[20] = tested on: K-562 leukemia
[21] = tested on: KM12 colon
[22] = tested on: LOX IMVI melanoma
[23] = tested on: M14 melanoma
[24] = tested on: MALME-3M melanoma
[25] = tested on: MCF7 breast
[26] = tested on: MDA-MB-231 breast
[27] = tested on: MDA-MB-435
[28] = tested on: MDA-MB-468 breast
[29] = tested on: MOLT-4 leukemia
[30] = tested on: NCI-H226 lung

`COc1cnc2c(c1)C(=O)c1c-2n(CCCNCCO)c(=O)c2cc(OC)c(OC)cc12` gave a GI50 [1] of 2.54 µM, a TGI [1] of 14.9 µM and a GI50 [2] of 12.5 µM. For the same compound, the TGI [2] was 25.6 µM, the GI50 [3] was 4.88 µM and the TGI [3] was 20.7 µM. It also gave a GI50 [4] of 2.1 µM, a TGI [4] of 13.2 µM and a GI50 [5] of 9.48 µM. It also gave a TGI [5] of 22.9 µM, a GI50 [6] of 1.85 µM and a TGI [6] of 16.3 µM. The GI50 [7] was 0.268 µM, the TGI [7] was 18.8 µM and the GI50 [8] was 3.33 µM. For the same compound, the TGI [8] was 20 µM, the GI50 [9] was 0.726 µM and the TGI [9] was 12.1 µM. For the same compound, the GI50 [10] was 6.9 µM, the TGI [10] was 20.4 µM and the GI50 [11] was 2.25 µM. It also gave a TGI [11] of 10.8 µM, a GI50 [12] of 1.15 µM and a TGI [12] of 2.85 µM. The GI50 [13] was 2.74 µM, the TGI [13] was 14.6 µM and the GI50 [14] was 0.733 µM. For the same compound, the TGI [14] was 13.5 µM, the GI50 [15] was 0.349 µM and the TGI [15] was 3.78 µM. It also gave a GI50 [16] of 5.07 µM, a TGI [16] of 20.8 µM and a GI50 [17] of 12.1 µM. For the same compound, the TGI [17] was 43.1 µM, the GI50 [18] was 1.46 µM and the TGI [18] was 10.9 µM. The GI50 [19] was 12.1 µM, the TGI [19] was 28 µM and the GI50 [20] was 0.708 µM. It also gave a TGI [20] of 22.9 µM, a GI50 [21] of 12.4 µM and a TGI [21] of 25.9 µM. For the same compound, the GI50 [22] was 0.475 µM, the TGI [22] was 1.9 µM and the GI50 [23] was 3.77 µM. For the same compound, the TGI [23] was 15.8 µM, the GI50 [24] was 7.2 µM and the TGI [24] was 21.6 µM. It also gave a GI50 [25] of 0.174 µM, a TGI [25] of 4.05 µM and a GI50 [26] of 6.52 µM. For the same compound, the TGI [26] was 20.3 µM, the GI50 [27] was 6.88 µM and the TGI [27] was 20.7 µM. The GI50 [28] was 1.08 µM, the TGI [28] was 2.78 µM and the GI50 [29] was 0.311 µM. The TGI [29] was 19.1 µM and the GI50 [30] was 1.35 µM.
